A word on the IC50: it is the concentration needed to halve the response being measured.

Consider six compounds from patent publication US20260355212A1 (priority 2022, published 2026).

Where two headings read alike, the source gives them in different places.

The target of one assay is HCoV-OC43 Mpro (Human coronavirus OC43, UniProt P0C6X6). Put plainly: HCoV-OC43 Mpro enzymatic inhibition assay (fluorescence). It is filed as biochemical. In outline: (§1)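 Protease activity is measured by cleavage of a synthetic fluorogenic substrate, read at 340/490 nm following 60 min at 30 °C. Enzyme and compound are pre-incubated 30 min beforehand.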
Another assay concerns the target HCoV-NL63 Mpro (Human coronavirus NL63, UniProt P0C6X5). Put plainly: HCoV-NL63 Mpro enzymatic inhibition assay (fluorescence). Type of assay: biochemical. In outline:
as §1

Another assay addresses HCoV-229E Mpro (Human coronavirus 229E, UniProt P0C6X1). Put plainly: HCoV-229E Mpro enzymatic inhibition assay (fluorescence). It is filed as biochemical.
The target of the next assay is MERS Mpro (Middle East respiratory syndrome-related coronavirus, UniProt K9N7C7). Nature of the assay: biochemical. Details: species or system MERS-CoV.
The next assay addresses SARS-CoV-1 Mpro (Severe acute respiratory syndrome coronavirus, UniProt P0C6X7). Put plainly: biochemical.
For the next assay, the target named is HCoV-HKU1 Mpro (Human coronavirus HKU1, UniProt P0C6X2). Nature of the assay: HCoV-HKU1 Mpro enzymatic inhibition assay (fluorescence). Type of assay: biochemical. A digest of the protocol: as §1
The target in another assay is SARS-CoV-2 Mpro (Severe acute respiratory syndrome coronavirus 2, UniProt P0DTD1). Nature of the assay: SARS-CoV-2 Mpro enzymatic inhibition assay (fluorescence). It is filed as biochemical. A digest of the protocol: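 Recombinant Mpro expressed in E. coli was preincubated 30 min at room temperature with 10-point, 3-fold serially diluted compound in duplicate. Fluorogenic substrate was then added and incubated 60 min at 30° C, and fluorescence read at Ex/Em 340/490 nm. IC50 came from a four-parameter fit of % inhibition.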

Where [1] appears, read: mean, 25 nM protein, 25 μM substrate, 30 min pre-incubation, 60 min at 30° C., read-out: Mpro_SARS-CoV-2 mean IC50.

HCoV-229E Mpro, sequence (P0C6X1 2966-3267 limits assumed): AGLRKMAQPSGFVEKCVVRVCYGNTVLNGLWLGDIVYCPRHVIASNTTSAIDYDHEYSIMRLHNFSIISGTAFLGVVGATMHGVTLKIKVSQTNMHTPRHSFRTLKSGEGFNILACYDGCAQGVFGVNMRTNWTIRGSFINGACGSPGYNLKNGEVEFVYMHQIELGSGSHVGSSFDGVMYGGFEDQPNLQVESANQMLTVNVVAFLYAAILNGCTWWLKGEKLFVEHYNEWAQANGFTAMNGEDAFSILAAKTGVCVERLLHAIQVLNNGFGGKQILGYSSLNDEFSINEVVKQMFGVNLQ
HCoV-HKU1 Mpro, sequence (P0C6X2 3335-3637 limits assumed): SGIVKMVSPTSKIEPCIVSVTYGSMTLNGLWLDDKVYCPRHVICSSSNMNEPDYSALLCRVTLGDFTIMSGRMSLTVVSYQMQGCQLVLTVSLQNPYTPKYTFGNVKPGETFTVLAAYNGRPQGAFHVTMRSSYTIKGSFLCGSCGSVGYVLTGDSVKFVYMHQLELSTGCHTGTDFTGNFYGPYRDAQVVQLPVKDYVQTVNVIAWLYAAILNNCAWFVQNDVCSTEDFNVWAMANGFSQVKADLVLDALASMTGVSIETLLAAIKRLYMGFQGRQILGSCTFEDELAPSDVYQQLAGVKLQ
HCoV-NL63 Mpro, sequence (P0C6X5 2940-3242 limits assumed): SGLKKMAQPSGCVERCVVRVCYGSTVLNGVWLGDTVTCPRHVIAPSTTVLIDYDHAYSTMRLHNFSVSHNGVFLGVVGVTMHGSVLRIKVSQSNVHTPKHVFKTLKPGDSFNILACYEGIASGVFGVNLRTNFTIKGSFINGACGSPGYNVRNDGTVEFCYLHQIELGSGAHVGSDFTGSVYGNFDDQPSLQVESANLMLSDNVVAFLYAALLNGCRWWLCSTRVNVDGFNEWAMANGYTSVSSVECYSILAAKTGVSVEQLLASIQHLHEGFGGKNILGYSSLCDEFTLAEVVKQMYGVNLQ
MERS Mpro, sequence (K9N7C7 3248-3553 limits assumed): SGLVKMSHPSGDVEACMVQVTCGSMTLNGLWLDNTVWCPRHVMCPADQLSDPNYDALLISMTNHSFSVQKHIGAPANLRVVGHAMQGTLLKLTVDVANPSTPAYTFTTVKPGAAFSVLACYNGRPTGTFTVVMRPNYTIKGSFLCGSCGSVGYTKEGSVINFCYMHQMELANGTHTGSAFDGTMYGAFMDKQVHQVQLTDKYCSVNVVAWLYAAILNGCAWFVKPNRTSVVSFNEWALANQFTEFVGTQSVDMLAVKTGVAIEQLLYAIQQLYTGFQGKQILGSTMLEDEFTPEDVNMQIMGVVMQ
HCoV-OC43 Mpro, sequence (P0C6X6 3247-3549 limits assumed): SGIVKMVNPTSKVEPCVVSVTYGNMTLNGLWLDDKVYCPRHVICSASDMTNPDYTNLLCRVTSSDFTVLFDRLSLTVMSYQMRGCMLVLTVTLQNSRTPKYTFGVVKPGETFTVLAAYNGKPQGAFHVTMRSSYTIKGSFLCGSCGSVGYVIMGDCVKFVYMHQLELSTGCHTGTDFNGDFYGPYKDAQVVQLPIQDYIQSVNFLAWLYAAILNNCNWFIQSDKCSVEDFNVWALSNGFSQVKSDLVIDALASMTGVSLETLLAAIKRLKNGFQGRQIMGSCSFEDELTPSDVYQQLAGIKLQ

Regarding `O=C[C@H](C[C@@H]1CCNC1=O)NC(=O)[C@@H]1C[C@@H](C2CCCCC2)CN1C(=O)c1cc2cccc(F)c2[nH]1` [Compound 71, (2S,4S)-4-cyclohexyl-1-(7-fluoro-1H-indole-2-carbonyl)-N—((S)-1-oxo-3-((S)-2-oxopyrrolidin-3-yl)propan-2-yl)pyrrolidine-2-carboxamide], the IC50 at HCoV-OC43 Mpro came out at 133 nM; against HCoV-NL63 Mpro it was 414 nM; against HCoV-229E Mpro it was 53.5 nM; at MERS Mpro, 1420 nM; against SARS-CoV-1 Mpro it was 95.6 nM; against HCoV-HKU1 Mpro, 34.9 nM. The compound also yielded an IC50 against SARS-CoV-2 Mpro of 30.4 nM.

For the compound `CC1(C)[C@@H]2[C@@H](C(=O)N[C@H](C=O)C[C@@H]3CCNC3=O)N(C(=O)Cc3ccccc3)C[C@@H]21` [Compound 23, (1R,2S,5S)-6,6-dimethyl-N—((S)-1-oxo-3-((S)-2-oxopyrrolidin-3-yl)propan-2-yl)-3-(2-phenylacetyl)-3-azabicyclo[3.1.0]hexane-2-carboxamide], the IC50 on HCoV-OC43 Mpro was found to be 30.5 nM; at HCoV-NL63 Mpro, 49.7 nM; on HCoV-229E Mpro it was 33.8 nM; on MERS Mpro it was 126 nM; at SARS-CoV-1 Mpro, 23.3 nM; at HCoV-HKU1 Mpro, 22.6 nM. The IC50 at SARS-CoV-2 Mpro (setting [1]) was 15.8 nM.

As for `O=C[C@H](C[C@@H]1CCNC1=O)NC(=O)[C@@H]1C[C@@H](Cc2cccc(Cl)c2)CN1C(=O)c1cc2ccccc2[nH]1` [Compound 137, (2S,4R)-4-(3-Chlorobenzyl)-1-(1H-indole-2-carbonyl)-N—((S)-1-oxo-3-((S)-2-oxopyrrolidin-3-yl)propan-2-yl)pyrrolidine-2-carboxamide], the IC50 at HCoV-OC43 Mpro stood at 1420 nM; at HCoV-NL63 Mpro it was 6560 nM; at HCoV-229E Mpro, 1260 nM; against MERS Mpro it was 36300 nM; against SARS-CoV-1 Mpro it was 1520 nM; at HCoV-HKU1 Mpro, 262 nM. Moreover, at SARS-CoV-2 Mpro, the IC50 was 478 nM.

As for `Cc1cccc([C@@H](C)C(=O)N2C[C@H]3[C@@H]([C@H]2C(=O)N[C@H](C#N)C[C@@H]2CCNC2=O)C3(C)C)c1` [Compound 120], the IC50 at HCoV-OC43 Mpro (mean, 25 nM protein, 12.5 μM substrate, 30 min pre-incubation, 60 min at 30° C., read-out: Mpro_OC43 mean IC50) was determined as 567 nM; at HCoV-NL63 Mpro (mean, 50 nM protein, 12.5 μM substrate, 30 min pre-incubation, 60 min at 30° C., read-out: Mpro_NL63 mean IC50) it was 1400 nM; at HCoV-229E Mpro (mean, 50 nM protein, 12.5 μM substrate, 30 min pre-incubation, 60 min at 30° C., read-out: Mpro_229E mean IC50), 299 nM; at MERS Mpro it was 1130 nM; on SARS-CoV-1 Mpro it was 196 nM; at HCoV-HKU1 Mpro (mean, 12.5 nM protein, 12.5 μM substrate, 30 min pre-incubation, 60 min at 30° C., read-out: Mpro_HKU1 mean IC50), 193 nM. Besides, the IC50 on SARS-CoV-2 Mpro (setting [1]) was found to be 151 nM.

Consider `N#C[C@@H]1C[C@@H](C(=O)N[C@H](C=O)C[C@@H]2CCNC2=O)N(C(=O)c2cc3ccccc3[nH]2)C1` [Compound 112, (2S,4R)-4-Cyano-1-(1H-indole-2-carbonyl)-N—((S)-1-oxo-3-((S)-2-oxopyrrolidin-3-yl)propan-2-yl)pyrrolidine-2-carboxamide], for which the IC50 at HCoV-OC43 Mpro came out at 390 nM; against HCoV-NL63 Mpro it was 503 nM; against HCoV-229E Mpro, 149 nM; on MERS Mpro, 2760 nM; against SARS-CoV-1 Mpro, 244 nM; against HCoV-HKU1 Mpro it was 120 nM. On SARS-CoV-2 Mpro, this compound displayed an IC50 of 84.6 nM.

For the compound `CC1(C)[C@@H]2[C@@H](C(=O)N[C@H](C=O)C[C@@H]3CCNC3=O)N(C(=O)Cc3ccc4c(c3)CCCC4)C[C@@H]21` [Compound 40, (1R,2S,5S)-6,6-Dimethyl-N—((S)-1-oxo-3-((S)-2-oxopyrrolidin-3-yl)propan-2-yl)-3-(2-(5,6,7,8-tetrahydronaphthalen-2-yl)acetyl)-3-azabicyclo[3.1.0]hexane-2-carboxamide], the IC50 was 45.7 nM against HCoV-OC43 Mpro; 88.6 nM at HCoV-NL63 Mpro; 40.1 nM at HCoV-229E Mpro; 237 nM at MERS Mpro; 35.3 nM on SARS-CoV-1 Mpro; 20.4 nM at HCoV-HKU1 Mpro. The compound also displayed an IC50 on SARS-CoV-2 Mpro of 21.7 nM.
